Assay results published in publication PMC10561090, “Modulation of HIV-1 capsid multimerization by sennoside A and sennoside B via interaction with the NTD/CTD interface in capsid hexamer” (Frontiers in Microbiology, 2023).
Where “and” joins values, the source holds several entries; their conditions need not be identical. Identical values can stand only once. Like-named read-outs stand apart in the source and are kept apart here. Where no end group is shown, it is not given here. The star is where a group is joined. Biotin = O=C1N[C@H]2[C@H](CS[C@H]2CCCCC(=O)*)N1

What was measured:
[1] = target: T1, HIV-1 CA CTD/CAI interaction (Human immunodeficiency virus type 1 group M subtype B, UniProt P12493); assay: biochemical; type: binding; settings: for IC50: 12-point two-fold dilution 50 to 0.024 μM, n = 3; for inhibition at 50 µM: read-out: IR (%), inhibitory rate
T1 construct: DNA encoding the CA CTD was cloned into BamHI-NotI sites of prokaryotic expression vector pGEX-4 T-1; made in house; host or cells: E. coli BL21(DE3)
Description: The Discovery Probe FDA-approved Drug Library comprised 1,971 compounds, which were available as stock solutions at 10 mM concentrations in DMSO. Primary screening of these compounds was conducted using a previously established HTRF assay ([Zhang et al., 2019]). Briefly, compound (1 μL), CAI-biotin peptide (2 μL) and GST-CA CTD (2 μL) were dispensed into 384-well microplates. After 30 min incubation at room temperature, 5 μL premixed HTRF agents were added. After an additional 1 h incubation at room temperature, the HTRF signal was acquired by reading the plates in a PerkinElmer Envision Multilabel Plate Reader. Data were analyzed and visualized using GraphPad Prism (version 5.0). […] The quality of the assay was determined by calculating the Z’-factor using the following equation: Z’ = 1 - (3 × SDmax + 3 × SDmin) / |μmax - μmin|, where SDmax and SDmin represent the standard deviations of the positive and negative control measurements, respectively, and μmax and μmin represent the means of the respective positive and negative signal controls ([Zhang et al., 1999]).
We screened a library of 1,971 small molecules, all of which were FDA-approved. Each compound was tested in duplicate at a concentration of 50 μM. […] The remaining compounds were further validated through dose–response analysis using the HTRF assay.
Seven hit compounds were repurchased and subjected to a 12-point two-fold serial dilution, from 50 to 0.024 μM. […] This assay was conducted using three different concentrations of the compounds to determine their binding to monomeric CA.

HIV-1 CA = target: T2, HIV-1 CA (Human immunodeficiency virus type 1 group M subtype B, UniProt P12493); assay: In vitro assembly of recombinant CA (absorbance at 350 nm); type: biochemical; settings: 2.5 M NaCl, absorbance at 350 nm over time
T2 construct: capsid proteins (CA) released by proteolytic processing of Gag; made in house
Description: To monitor the in vitro assembly of HIV-1 CA in the presence and absence of hit compounds, changes in sample absorbance over time at 350 nm were measured, as previously described ([Lanman et al., 2002]; [Tang et al., 2003]; [Xu et al., 2018]). To initiate the assay, 1 μL of 5 mM SA or SB was added to 74 μL of buffer composed of a mixture of 5 M NaCl and 200 mM NaH2PO4 (pH 8.0) in a ratio of 2:1 by volume. Subsequently, 25 μL of CA (120 μM) was added to each well and DMSO served as a vehicle control. After a 2-min equilibration period, sample absorbance values were measured at 350 nm every 60 s for 39 min using a Perkin Elmer Envision microplate reader and were corrected by subtracting the absorbance values of a blank sample without sodium chloride. The resulting data were analyzed using GraphPad Prism 5.0.
Under high ionic strength conditions, recombinant CA can spontaneously oligomerize and form open-ended helical tubes consisting of repeating CA hexamers. To investigate the impact of SA and SB on CA tube assembly, we monitored in vitro CA assembly in the presence and absence of SA and SB by measuring changes in light absorbance over time in 2.5 M NaCl. CA (25 μM) for CA. […] We used BLI to determine the KD values of SA and SB in the HIV-1 CA hexamer.
Figure 4 Sennoside A and Sennoside B induced CA multimerization in vitro. (A–B) Light scattering (absorbance at 350 nm) responses showing the rate and extent of in vitro CA (20 μM) assembly in 2.5 M NaCl, in absence of compounds (mock) and the presence of Sennoside A and Sennoside B or CAI. Data are representative of three independent experiments. (C–D) Representative binding sensorgrams depicting the interaction of SA or SB with CA hexamer assessed by bio-layer interferometry (BLI) detection.

Cytotoxicity, MTT assay = type: cell-based; settings: human, C8166 cells
Description: (§1) Anti-HIV-1 activity was determined by an assay based on virus-induced cytopathic effects (CPE) ([Zhang et al., 2020]). Briefly, C8166 cells were infected with HIV-1 at a multiplicity of infection (M.O.I) of 0.03, with DMSO or diluted SA or SB in 96-well plates. […] The cytotoxicity of the compounds was determined by a tetrazolium dye (MTT) based assay. C8166 cells were co-incubated with diluted SA or SB in 96-well plates. After 3 days, cell viability was determined using MTT, and the 50% cytotoxicity concentration (CC50) was calculated. […] Tenofovir disoproxil fumarate (TDF) was used as a positive control.
(§2) To further evaluate the antiviral effects of SA and SB, we tested them for protecting C8166 cells from HIV-1-induced CPE. The cytotoxic effect of these compounds on C8166 cells was also assessed.

[2] = target: T3, CA hexamer/CPSF6 peptide interaction (Human immunodeficiency virus type 1 group M subtype B, UniProt P12493, A146C/E177C/M317A/W316A); type: binding, HIV-1
T3 construct: capsid proteins (CA) released by proteolytic processing of Gag; made in house
Description: As mentioned previously, this pocket is the binding site for two host cell proteins, CPSF6 and NUP153 ([Price et al., 2014]). […] We then performed a BLI-based competition assay. CA hexamer at a concentration of 5 μM, either alone or in combination with high concentrations of SA or SB or PF-74, were used to bind to the SA biosensor loaded with biotinylated CPSF6_313–327 or NUP153_1407–1423.
Biotinylated hexameric CA was firstly loaded to streptavidin-coated biosensors. Then the biosensors were dipped into the plate wells containing CPSF6_308-327 or NUP153_1407–1423 in the absence or presence of PF74 or SA or SB. BLI signals were captured by Octet96 system and data were normalized according to the signal in the absence of compound. Comparisons between data were carried out using the paired t-test by GraphPad Prism 5.0. The double asterisk (^**) and three asterisks (^***) represent p < 0.01 and < 0.001 from the paired t test, respectively.

HIV-1 CA monomer (E187A) = HIV-1 CA monomer (E187A) (Human immunodeficiency virus type 1 group M subtype B, UniProt P12493, E319A); assay: biochemical; type: binding
HIV-1 CA monomer (Y169A) = HIV-1 CA monomer (Y169A) (Human immunodeficiency virus type 1 group M subtype B, UniProt P12493, Y301A); assay: biochemical; type: binding
SARS-CoV-2 main protease = settings: cited from earlier work
HIV-1 CA hexamer = HIV-1 CA hexamer (Human immunodeficiency virus type 1 group M subtype B, UniProt P12493, A146C/E177C/M317A/W316A); assay: BLI binding to CA hexamer
HIV-1 CA monomer (L211A) [3] = target: HIV-1 CA monomer (L211A) (Human immunodeficiency virus type 1 group M subtype B, UniProt P12493, L343A); assay: biochemical; type: binding
HIV-1 CA monomer (N183A) = HIV-1 CA monomer (N183A) (Human immunodeficiency virus type 1 group M subtype B, UniProt P12493, N315A); assay: biochemical; type: binding
HIV-1 [4] = assay: Anti-HIV-1 activity, virus-induced cytopathic effect in C8166 cells; type: cell-based; settings: for IC50: Human immunodeficiency virus 1, M.O.I 0.03, 72 h, read-out: IC50 against HIV-1 induced CPE
Description: as §1, §2

HIV-1 CA monomer (L211S) = HIV-1 CA monomer (L211S) (Human immunodeficiency virus type 1 group M subtype B, UniProt P12493, L343S); assay: biochemical; type: binding
HIV-1 CA monomer (WT) = target: T4, HIV-1 CA monomer (WT) (Human immunodeficiency virus type 1 group M subtype B, UniProt P12493); assay: biochemical; type: binding; settings: 7.5–30 μM compound, 1:1 model, mean ± SD
T4 construct: capsid proteins (CA) released by proteolytic processing of Gag; made in house

protease of zika virus = settings: ref Coelho et al., 2022; cited from earlier work
RNase H = target: RNase H; set-up: method as in Esposito et al., 2016; settings: ref Esposito et al., 2016; cited from earlier work
HIV-1 [5] = tested on: HIV-1; set-up: method as in Esposito et al., 2016; settings: cell-based assays, ref Esposito et al., 2016; read-out: EC50, anti-HIV-1 activity; cited from earlier work
HIV-1 CA monomer (L211A) [6] = assay: biochemical; type: binding; settings: CA L211A compared to WT CA
integrase = target: integrase; set-up: method as in Esposito et al., 2016; settings: ref Esposito et al., 2016; cited from earlier work
[7] = target: HIV-1 reverse transcriptase-associated DNA Polymerase; set-up: method as in Esposito et al., 2016; settings: ref Esposito et al., 2016; cited from earlier work
[8] = primary screening, compound at 50 μM, duplicate
[9] = 5 μM CA hexamer, PF74 2.5 μM, SA 225 μM, SB 175 μM

Q: Which results are given for `CC[C@H](C)C[C@H](C)CCCCCCCCC(=O)N[C@H]1C[C@@H](O)[C@@H](NCCN)NC(=O)[C@@H]2[C@@H](O)CCN2C(=O)[C@H]([C@H](O)CCN)NC(=O)[C@H]([C@H](O)[C@@H](O)c2ccc(O)cc2)NC(=O)[C@@H]2C[C@@H](O)CN2C(=O)[C@H]([C@@H](C)O)NC1=O` [Caspofungin]?
A: IC50 [1]: 29500 nM; inhibition at 50 µM [1, 8]: 94.2%

Q: For “CAI: dodecapeptide capsid assembly inhibitor identified by phage display, positive control (ITFEDLLDYYPGGGSK(Biotin))”, which “effect on in vitro CA assembly” value (HIV-1 CA) is on record?
A: inhibited CA assembly in vitro

Q: Which IC50 [1] does the source give for `O=C(O)c1cc(O)c2c(c1)[C@@H]([C@H]1c3cc(C(=O)O)cc(O)c3C(=O)c3c(O[C@@H]4O[C@H](CO)[C@@H](O)[C@H](O)[C@H]4O)cccc31)c1cccc(O[C@@H]3O[C@H](CO)[C@@H](O)[C@H](O)[C@H]3O)c1C2=O` [Sennoside B, sennoside B] here?
A: 80 nM

Q: What about the inhibition at 50 µM [1, 8] of the same molecule?
A: 95.1%

Q: And the CC50 at 3 days (Cytotoxicity, MTT assay)?
A: 33400 nM

Q: What about the “effect on CA hexamer/CPSF6 peptide interaction” value [2, 9] of the same molecule?
A: inhibited

Q: And the Kd (HIV-1 CA monomer (E187A))?
A: 6770 ± 200 nM

Q: What about the Kd (HIV-1 CA monomer (Y169A)) of the same molecule?
A: 2800 ± 70 nM

Q: What about the IC50 (SARS-CoV-2 main protease) of the same molecule?
A: 104 nM

Q: What about the Kd (HIV-1 CA hexamer) of the same molecule?
A: 2250 nM and 1750 nM

Q: And the Kd (HIV-1 CA monomer (L211A) [3])?
A: 2520 ± 70 nM

Q: And the “effect on in vitro CA assembly” value (HIV-1 CA)?
A: increased in vitro CA assembly in a dose-dependent manner

Q: What about the Kd (HIV-1 CA monomer (N183A)) of the same molecule?
A: 3960 ± 110 nM

Q: And the “selectivity index (SI = CC50/EC50)” value (HIV-1 [4])?
A: less than 10

Q: What about the IC50 (HIV-1 [4]) of the same molecule?
A: 4730 nM

Q: What about the Kd (HIV-1 CA monomer (L211S)) of the same molecule?
A: 4840 ± 120 nM

Q: What about the Kd (HIV-1 CA monomer (WT)) of the same molecule?
A: 1620 nM

Q: Which inhibition at 50 µM [1, 8] does the source give for `CCCCCCCCCCCC1=C(O)C(=O)C=C(O)C1=O` [Embelin] here?
A: 94.3%

Q: Which “effect on CA hexamer/CPSF6 peptide interaction” value [2] does the source give for PF-74 here?
A: inhibited, to a degree

Q: Which IC50 [1] does the source give for `O=C(O)c1cc(O)c2c(c1)[C@H]([C@H]1c3cc(C(=O)O)cc(O)c3C(=O)c3c(O[C@@H]4O[C@H](CO)[C@@H](O)[C@H](O)[C@H]4O)cccc31)c1cccc(O[C@@H]3O[C@H](CO)[C@@H](O)[C@H](O)[C@H]3O)c1C2=O` [Sennoside A, sennoside A] here?
A: 180 nM

Q: What about the inhibition at 50 µM [1, 8] of the same molecule?
A: 94.7%

Q: What about the IC50 (protease of zika virus) of the same molecule?
A: 660 nM

Q: And the IC50 (RNase H)?
A: 1900 nM

Q: And the EC50 (HIV-1 [5])?
A: ~9000 nM

Q: What about the CC50 at 3 days (Cytotoxicity, MTT assay) of the same molecule?
A: 22600 nM

Q: And the “effect on CA hexamer/CPSF6 peptide interaction” value [2, 9]?
A: inhibited

Q: What about the Kd (HIV-1 CA monomer (E187A)) of the same molecule?
A: 7690 ± 250 nM

Q: What about the Kd (HIV-1 CA monomer (Y169A)) of the same molecule?
A: 8800 ± 290 nM

Q: And the Kd (HIV-1 CA hexamer)?
A: 1750 nM and 2250 nM

Q: And the KD fold change (HIV-1 CA monomer (L211A) [6])?
A: 1.35

Q: What about the Kd (HIV-1 CA monomer (L211A) [3]) of the same molecule?
A: 3170 ± 90 nM

Q: What about the “effect on in vitro CA assembly” value (HIV-1 CA) of the same molecule?
A: increased in vitro CA assembly in a dose-dependent manner

Q: And the Kd (HIV-1 CA monomer (N183A))?
A: 1950 ± 60 nM

Q: And the “selectivity index (SI = CC50/EC50)” value (HIV-1 [4])?
A: less than 10

Q: And the IC50 (HIV-1 [4])?
A: 2270 nM

Q: And the Kd (HIV-1 CA monomer (L211S))?
A: 7000 ± 180 nM

Q: And the IC50 (integrase)?
A: 3800 nM

Q: And the IC50 [7]?
A: 5300 nM

Q: What about the Kd (HIV-1 CA monomer (WT)) of the same molecule?
A: 2340 nM

Q: For `O=C(O)CCCC[C@@H]1SC[C@@H]2NC(=O)N[C@@H]21` [Biotin], which inhibition at 50 µM [1] is on record?
A: 98.8%
